Patent publication US8633200B2, “Inhibitors of human immunodeficiency virus replication” (priority 2010, dated 2014)
Where a name gives a salt, the structure may show the parent alone.

These compounds were tested on recombinant NL-Rluc virus (NL4-3 with Renilla Luciferase gene) in MT-2 cells (assay: Inhibition of HIV replication (NL-Rluc luciferase reporter virus, MT-2 cells)). Conditions: NL43, 120 h, read-out: Activity.
Format: cell-based, human immunodeficiency virus (HIV)

First: Cc1nc2cc(-c3ccc(OCc4ccccc4)nc3)nn2c(-c2cc(F)c3c(c2C)CCCO3)c1C(OC(C)(C)C)C(=O)O (stereo not shown) [Example 108, 2-(2-(6-(Benzyloxy)pyridin-3-yl)-7-(8-fluoro-5-methylchroman-6-yl)-5-methylpyrazolo[1,5-a]pyrimidin-6-yl)-2-tert-butoxyacetic acid, TFA salt]
Second: Cc1nc2cc(-c3cccc(C(=O)NCc4ccccc4)c3)nn2c(-c2cc(F)c3c(c2C)CCCO3)c1C(OC(C)(C)C)C(=O)O (stereo not shown) [Example 111, 2-(2-(3-(Benzylcarbamoyl)phenyl)-7-(8-fluoro-5-methylchroman-6-yl)-5-methylpyrazolo[1,5-a]pyrimidin-6-yl)-2-tert-butoxyacetic acid, TFA salt]
The EC50 of the first is lower: < 0.1 µM for the first, 0.1 to 1 µM for the second.

First: Cc1nc2cc(-c3ccnc(F)c3)nn2c(-c2cc(F)c3c(c2C)CCCO3)c1C(OC(C)(C)C)C(=O)O (stereo not shown) [Example 109, 2-tert-Butoxy-2-(7-(8-fluoro-5-methylchroman-6-yl)-2-(2-fluoropyridin-4-yl)-5-methylpyrazolo[1,5-a]pyrimidin-6-yl)acetic acid, TFA salt]
Second: Cc1nc2cc(-c3cccc(Cl)c3)nn2c(-c2cc(F)c3c(c2C)CCCO3)c1[C@H](OC(C)(C)C)C(=O)O [Example 123, (2S)-2-(tert-Butoxy)-2-(2-(3-chlorophenyl)-7-(8-fluoro-5-methylchroman-6-yl)-5-methylpyrazolo[1,5-a]pyrimidin-6-yl)acetic acid, TFA salt]
The EC50 of the first is higher: 0.1 to 1 µM for the first, < 0.1 µM for the second. The second is the more potent here.

First: Cc1nc2cc(-c3cccc(C(=O)Nc4ccccc4)c3)nn2c(-c2cc(F)c3c(c2C)CCCO3)c1C(OC(C)(C)C)C(=O)O (stereo not shown) [Example 110, 2-tert-Butoxy-2-(7-(8-fluoro-5-methylchroman-6-yl)-5-methyl-2-(3-(phenylcarbamoyl)phenyl)pyrazolo[1,5-a]pyrimidin-6-yl)acetic acid, TFA salt]
Second: Cc1nc2cc(-c3cccc(-c4ccccc4)c3)nn2c(-c2cc(F)c3c(c2C)CCCO3)c1[C@H](OC(C)(C)C)C(=O)O [Example 125, (2S)-2-(2-([1,1′-Biphenyl]-3-yl)-7-(8-fluoro-5-methylchroman-6-yl)-5-methylpyrazolo[1,5-a]pyrimidin-6-yl)-2-(tert-butoxy)acetic acid]
The EC50 of the first is higher: 0.1 to 1 µM for the first, < 0.1 µM for the second. The second is the more potent here.

Cc1nc2cc(-c3ccc(Oc4ccccc4)cc3)nn2c(-c2ccc3c(c2)CCCO3)c1C(OC(C)(C)C)C(=O)O (stereo not shown) [Example 112, 2-tert-Butoxy-2-(7-(chroman-6-yl)-5-methyl-2-(4-phenoxyphenyl)pyrazolo[1,5-a]pyrimidin-6-yl)acetic acid, TFA salt] and Cc1cccc(-c2cc3nc(C)c(C(OC(C)(C)C)C(=O)O)c(-c4ccc5c(c4)CCCO5)n3n2)c1 (stereo not shown) [Example 114, 2-tert-Butoxy-2-(7-(chroman-6-yl)-5-methyl-2-m-tolylpyrazolo[1,5-a]pyrimidin-6-yl)acetic acid, TFA salt] fall in the same range of EC50: 0.1 to 1 µM for the first, 0.1 to 1 µM for the second.

Cc1nc2cc(-c3ccc4c(c3)CCCO4)nn2c(-c2ccc3c(c2)CCCO3)c1C(OC(C)(C)C)C(=O)O (stereo not shown) [Example 113, 2-tert-Butoxy-2-(2,7-di(chroman-6-yl)-5-methylpyrazolo[1,5-a]pyrimidin-6-yl)acetic acid, TFA salt] and Cc1nc2c(-c3cccc(Cl)c3)cnn2c(-c2ccc3c(c2)CCCO3)c1C(OC(C)(C)C)C(=O)O (stereo not shown) [Example 133, 2-tert-Butoxy-2-(3-(3-chlorophenyl)-(7-chroman-6-yl)-5-methylpyrazolo[1,5-a]pyrimidin-6-yl)acetic acid] fall in the same range of EC50: 0.1 to 1 µM for the first, 0.1 to 1 µM for the second.

Cc1ccccc1-c1cccc(-c2cc3nc(C)c([C@H](OC(C)(C)C)C(=O)O)c(-c4cc(F)c5c(c4C)CCCO5)n3n2)c1 [Example 115, (2S)-2-(tert-Butoxy)-2-(7-(8-fluoro-5-methylchroman-6-yl)-5-methyl-2-(2′-methyl-[1,1′-biphenyl]-3-yl)pyrazolo[1,5-a]pyrimidin-6-yl)acetic acid] and Cc1nc2cc(-c3cccc(-c4ccccc4F)c3)nn2c(-c2cc(F)c3c(c2C)CCCO3)c1[C@H](OC(C)(C)C)C(=O)O [Example 118, (2S)-2-(tert-Butoxy)-2-(7-(8-fluoro-5-methylchroman-6-yl)-2-(2′-fluoro-[1,1′-biphenyl]-3-yl)-5-methylpyrazolo[1,5-a]pyrimidin-6-yl)acetic acid] cannot be ordered by EC50: < 0.1 µM for the first, < 0.1 µM for the second.

COc1ccccc1-c1cccc(-c2cc3nc(C)c([C@H](OC(C)(C)C)C(=O)O)c(-c4cc(F)c5c(c4C)CCCO5)n3n2)c1 [Example 116, (2S)-2-(tert-Butoxy)-2-(7-(8-fluoro-5-methylchroman-6-yl)-2-(2′-methoxy-[1,1′-biphenyl]-3-yl)-5-methylpyrazolo[1,5-a]pyrimidin-6-yl)acetic acid] and COc1ccncc1-c1cccc(-c2cc3nc(C)c([C@H](OC(C)(C)C)C(=O)O)c(-c4cc(F)c5c(c4C)CCCO5)n3n2)c1 [Example 117, (2S)-2-(tert-Butoxy)-2-(7-(8-fluoro-5-methylchroman-6-yl)-2-(3-(4-methoxypyridin-3-yl)phenyl)-5-methylpyrazolo[1,5-a]pyrimidin-6-yl)acetic acid] cannot be ordered by EC50: < 0.1 µM for the first, < 0.1 µM for the second.

Cc1nc2cc(-c3cccc(-c4cccnc4)c3)nn2c(-c2cc(F)c3c(c2C)CCCO3)c1[C@H](OC(C)(C)C)C(=O)O [Example 119, (2S)-2-(tert-Butoxy)-2-(7-(8-fluoro-5-methylchroman-6-yl)-5-methyl-2-(3-(pyridin-3-yl)phenyl)pyrazolo[1,5-a]pyrimidin-6-yl)acetic acid] and Cc1nc2cc(-c3cccc(-c4ccncc4)c3)nn2c(-c2cc(F)c3c(c2C)CCCO3)c1[C@H](OC(C)(C)C)C(=O)O [Example 121, (2S)-2-(tert-Butoxy)-2-(7-(8-fluoro-5-methylchroman-6-yl)-5-methyl-2-(3-(pyridin-4-yl)phenyl)pyrazolo[1,5-a]pyrimidin-6-yl)acetic acid, TFA salt] cannot be ordered by EC50: < 0.1 µM for the first, < 0.1 µM for the second.

Cc1nc2cc(-c3cccc(-c4ccc5c(cnn5C)c4)c3)nn2c(-c2cc(F)c3c(c2C)CCCO3)c1[C@H](OC(C)(C)C)C(=O)O [Example 120, (2S)-2-(tert-Butoxy)-2-(7-(8-fluoro-5-methylchroman-6-yl)-5-methyl-2-(3-(1-methyl-1H-indazol-5-yl)phenyl)pyrazolo[1,5-a]pyrimidin-6-yl)acetic acid] and Cc1cccc(-c2cccc(-c3cc4nc(C)c([C@H](OC(C)(C)C)C(=O)O)c(-c5cc(F)c6c(c5C)CCCO6)n4n3)c2)c1 [Example 130, (2S)-2-(tert-Butoxy)-2-(7-(8-fluoro-5-methylchroman-6-yl)-2-(3′-methyl-[1,1′-biphenyl]-3-yl)-5-methylpyrazolo[1,5-a]pyrimidin-6-yl)acetic acid, TFA salt] cannot be ordered by EC50: < 0.1 µM for the first, < 0.1 µM for the second.

First: Cc1nc2cc(-c3cccc(-c4ccncc4)c3)nn2c(-c2cc(F)c3c(c2C)CCCO3)c1[C@@H](OC(C)(C)C)C(=O)O [Example 122, (2R)-2-(tert-Butoxy)-2-(7-(8-fluoro-5-methylchroman-6-yl)-5-methyl-2-(3-(pyridin-4-yl)phenyl)pyrazolo[1,5-a]pyrimidin-6-yl)acetic acid, TFA salt]
Second: Cc1nc2cc(-c3cccc(-c4ccc(F)cc4)c3)nn2c(-c2cc(F)c3c(c2C)CCCO3)c1[C@H](OC(C)(C)C)C(=O)O [Example 124, (2S)-2-(tert-Butoxy)-2-(7-(8-fluoro-5-methylchroman-6-yl)-2-(4′-fluoro-[1,1′-biphenyl]-3-yl)-5-methylpyrazolo[1,5-a]pyrimidin-6-yl)acetic acid, TFA salt]
The EC50 of the first is higher: > 1 µM for the first, < 0.1 µM for the second.

Cc1ccc(-c2cccc(-c3cc4nc(C)c([C@H](OC(C)(C)C)C(=O)O)c(-c5cc(F)c6c(c5C)CCCO6)n4n3)c2)cc1 [Example 126, (2S)-2-(tert-Butoxy)-2-(7-(8-fluoro-5-methylchroman-6-yl)-2-(4′-methyl-[1,1′-biphenyl]-3-yl)-5-methylpyrazolo[1,5-a]pyrimidin-6-yl)acetic acid, TFA salt] and COc1ccc(-c2cccc(-c3cc4nc(C)c([C@H](OC(C)(C)C)C(=O)O)c(-c5cc(F)c6c(c5C)CCCO6)n4n3)c2)cc1 [Example 127, (2S)-2-(tert-Butoxy)-2-(7-(8-fluoro-5-methylchroman-6-yl)-2-(4′-methoxy-[1,1′-biphenyl]-3-yl)-5-methylpyrazolo[1,5-a]pyrimidin-6-yl)acetic acid, TFA salt] cannot be ordered by EC50: < 0.1 µM for the first, < 0.1 µM for the second.

Cc1nc2cc(-c3cccc(-c4cccc(F)c4)c3)nn2c(-c2cc(F)c3c(c2C)CCCO3)c1[C@H](OC(C)(C)C)C(=O)O [Example 128, (2S)-2-(tert-Butoxy)-2-(7-(8-fluoro-5-methylchroman-6-yl)-2-(3′-fluoro-[1,1′-biphenyl]-3-yl)-5-methylpyrazolo[1,5-a]pyrimidin-6-yl)acetic acid, TFA salt] and COc1cccc(-c2cccc(-c3cc4nc(C)c([C@H](OC(C)(C)C)C(=O)O)c(-c5cc(F)c6c(c5C)CCCO6)n4n3)c2)c1 [Example 129, (2S)-2-(tert-Butoxy)-2-(7-(8-fluoro-5-methylchroman-6-yl)-2-(3′-methoxy-[1,1′-biphenyl]-3-yl)-5-methylpyrazolo[1,5-a]pyrimidin-6-yl)acetic acid, TFA salt] cannot be ordered by EC50: < 0.1 µM for the first, < 0.1 µM for the second.

First: Cc1nc2cc(-c3cccc(-c4cnn(C)c4)c3)nn2c(-c2cc(F)c3c(c2C)CCCO3)c1[C@H](OC(C)(C)C)C(=O)O [Example 131, (2S)-2-(tert-Butoxy)-2-(7-(8-fluoro-5-methylchroman-6-yl)-5-methyl-2-(3-(1-methyl-1H-pyrazol-4-yl)phenyl)pyrazolo[1,5-a]pyrimidin-6-yl)acetic acid]
Second: Cc1nc2c(-c3cccc(Cl)c3)cnn2c(-c2cc(F)c3c(c2C)CCCO3)c1C(OC(C)(C)C)C(=O)O (stereo not shown) [Example 132]
The EC50 of the first is lower: < 0.1 µM for the first, 0.1 to 1 µM for the second. The first is the more potent here.

With Cc1ccc(-c2c(C(OC(C)(C)C)C(=O)O)c(C)nc3c(-c4cccc(Cl)c4)cnn23)c(Cl)c1 (stereo not shown) [Example 134, 2-tert-Butoxy-2-(7-(2-chloro-4-methylphenyl)-3-(3-chlorophenyl)-5-methylpyrazolo[1,5-a]pyrimidin-6-yl)acetic acid] the EC50 was > 1 µM.

Same assay, conditions: NL43, 120 h, read-out: EC50 μM

First: Cc1nc2cc(-c3ccnc(F)c3)nn2c(-c2cc(F)c3c(c2C)CCCO3)c1C(OC(C)(C)C)C(=O)O (stereo not shown) [Example 109, 2-tert-Butoxy-2-(7-(8-fluoro-5-methylchroman-6-yl)-2-(2-fluoropyridin-4-yl)-5-methylpyrazolo[1,5-a]pyrimidin-6-yl)acetic acid, TFA salt]
Second: Cc1ccccc1-c1cccc(-c2cc3nc(C)c([C@H](OC(C)(C)C)C(=O)O)c(-c4cc(F)c5c(c4C)CCCO5)n3n2)c1 [Example 115, (2S)-2-(tert-Butoxy)-2-(7-(8-fluoro-5-methylchroman-6-yl)-5-methyl-2-(2′-methyl-[1,1′-biphenyl]-3-yl)pyrazolo[1,5-a]pyrimidin-6-yl)acetic acid]
The EC50 of the first is 14-fold higher: 0.27 µM for the first, 0.02 µM for the second. The second is the more potent here.

Going from Cc1nc2cc(-c3ccc4c(c3)CCCO4)nn2c(-c2ccc3c(c2)CCCO3)c1C(OC(C)(C)C)C(=O)O (stereo not shown) [Example 113, 2-tert-Butoxy-2-(2,7-di(chroman-6-yl)-5-methylpyrazolo[1,5-a]pyrimidin-6-yl)acetic acid, TFA salt] to Cc1nc2cc(-c3cccc(-c4ccc5c(cnn5C)c4)c3)nn2c(-c2cc(F)c3c(c2C)CCCO3)c1[C@H](OC(C)(C)C)C(=O)O [Example 120, (2S)-2-(tert-Butoxy)-2-(7-(8-fluoro-5-methylchroman-6-yl)-5-methyl-2-(3-(1-methyl-1H-indazol-5-yl)phenyl)pyrazolo[1,5-a]pyrimidin-6-yl)acetic acid], the EC50 falls from 0.11 µM to 0.002 µM (55-fold).
